Values quoted from earlier work, collected in patent US5972939A, “Cyclopentene derivatives useful as antagonists of the motilin receptor” (Ortho-McNeil Pharmaceutical, Inc., priority 1998, dated 1999).

Columns and labels:
motilin receptor = details: Weber et al. 1993; cited from earlier work
humans = details: intravenous, Christofides et al. 1979; cited from earlier work
[1] = system: smooth muscle in the stomach tissue of dogs, rabbits, and humans and in the colon of rabbits; details: cited from earlier work

Row | Structure (SMILES) | biological responses compared with motilin (motilin receptor) | gastric emptying and gut hormone release (humans) | smooth muscle contractions [1]
1 | CC[C@H]1OC(=O)[C@H](C)[C@@H](O[C@H]2C[C@@](C)(OC)[C@@H](O)[C@H](C)O2)[C@H](C)[C@@H](O[C@@H]2O[C@H](C)C[C@H](N(C)C)[C@H]2O)[C@](C)(O)C[C@@H](C)C(=O)[C@H](C)[C@@H](O)[C@]1(C)O [erythromycin] | elicits biological responses that are comparable to motilin itself |  | 
2 | CC[C@H](C)[C@H](NC(=O)[C@@H]1CCCN1C(=O)[C@@H](NC(=O)[C@@H](N)Cc1ccccc1)C(C)C)C(=O)N[C@@H](Cc1ccccc1)C(=O)N[C@H](C(=O)N[C@@H](Cc1ccc(O)cc1)C(=O)NCC(=O)N[C@@H](CCC(=O)O)C(=O)N[C@@H](CC(C)C)C(=O)N[C@@H](CCC(N)=O)C(=O)N[C@@H](CCCNC(=N)N)C(=O)N[C@@H](CCSC)C(=O)N[C@@H](CCC(N)=O)C(=O)N[C@@H](CCC(=O)O)C(=O)N[C@@H](CCCCN)C(=O)N[C@@H](CCC(=O)O)C(=O)N[C@@H](CCCNC(=N)N)C(=O)N[C@@H](CC(N)=O)C(=O)N[C@@H](CCCCN)C(=O)NCC(=O)N[C@@H](CCC(N)=O)C(=O)O)[C@@H](C)O [motilin] |  | increase gastric emptying and gut hormone release | induces smooth muscle contractions
